Measured values as given in patent publication US7989649B2, “Tumor imaging compounds” (Emory University, priority 2002, dated 2011).

Assays:
[1] = cited from earlier work
[2] = tested on: 9 L gliosarcoma tumor; conditions: same rodent tumor model, 60 minutes; cited from earlier work
[3] = normal Fischer rats, 60 minutes; cited from earlier work
[4] = tested on: human melanoma transplants; conditions: cited from earlier work
[5] = healthy Copenhagen rats, 60 minutes
[6] = nude Swiss mice bearing human melanoma transplants, 60 minutes

CN1C(C)(C(=O)OC(C)(C)C)COS1(=O)=O (stereo not drawn) [Compound 14b, 3,4-dimethyl-1,2,3-oxathiazolidine-4-carboxylic acid tert-butyl ester 2,2-dioxide]
melting point: 54 to 55 °C

CC([11CH3])(N)C(=O)O (stereo not drawn) [[^11C]AIB, [^11C]α-aminoisobutyric acid]
mean relative concentration (mean RC), brain [1, 5]: 0.2 | mean relative concentration (mean RC), kidneys [1, 5]: 10.3 | mean relative concentration (mean RC), pancreas [1, 5]: 6.0

OC[C@H]1OC(O)[C@H]([18F])[C@@H](O)[C@@H]1O (stereo partly drawn) [[^18F]FDG, 2-[^18F]fluorodeoxyglucose]
uptake in normal brain [2]: 1.30 % ID/g | uptake in tumor tissue [2]: 1.05 % ID/g

N[C@]1(C(=O)O)C[C@@H](F)C1 [trans-[^18F]FACBC, trans-1-amino-3-[^18F]fluorocyclobutyl-1-carboxylic acid]
pancreatic uptake [3]: 3.4 % ID/g

CC(C)(N)C(=O)O [AIB, α-aminoisobutyric acid]
mean RC in pancreas and kidneys ([1]; rats, within 5-15 minutes post-injection): greater than 1.8 | mean RC in pancreas and kidneys ([4]; mice, within 5-15 minutes post-injection): greater than 1.8

CC(C)(N)C(=O)O [[^14C]AIB]
mean RC, brain [4, 6]: 0.23 | mean RC, kidneys [4, 6]: 3.4 | mean RC, pancreas [4, 6]: 8.6
